Experimental data reported in patent publication US20230133958A1, “COMPOUNDS USEFUL IN MODULATING EGFR AND PI3K” (Mekanistic Therapeutics LLC, priority 2021, published 2023).
pIC50: −log10 of the molar value.

Key:
[1] = system: HL-60(TB); assay: NCI COMPARE panel (SRB growth inhibition), HL-60(TB); type: cell-based; conditions: Homo sapiens, Leukemia, 48 h
Experimental: (§1) The human tumor cell lines of the cancer screening panel are grown in RPMI 1640 medium containing 5% fetal bovine serum and 2 mM L-glutamine. For a typical screening experiment, cells are inoculated into 96 well microtiter plates in 100 µL at plating densities ranging from 5,000 to 40,000 cells/well depending on the doubling time of individual cell lines. After cell inoculation, the microtiter plates are incubated at 37° C., 5% CO2, 95% air and 100% relative humidity for 24 h prior to addition of experimental drugs.
(§2) After 24 h, two plates of each cell line are fixed in situ with TCA, to represent a measurement of the cell population for each cell line at the time of drug addition (Tz). Experimental drugs are solubilized in dimethyl sulfoxide at 400-fold the desired final maximum test concentration and stored frozen prior to use. […]
(§3) Following drug addition, the plates are incubated for an additional 48 h at 37° C., 5 % CO2, 95% air, and 100% relative humidity. […] Bound stain is subsequently solubilized with 10 mM trizma base, and the absorbance is read on an automated plate reader at a wavelength of 515 nm. […] Using the seven absorbance measurements [time zero, (Tz), control growth, (C), and test growth in the presence of drug at the five concentration levels (Ti)], the percentage growth is calculated at each of the drug concentrations levels. Percentage growth inhibition is calculated as: […]

[2] = system: HCC-2998; assay: NCI COMPARE panel (SRB growth inhibition), HCC-2998; type: cell-based; conditions: Homo sapiens; Colon Cancer, HCC-2998, 48 h
Experimental: as §1, §2, §3

[3] = system: MDA-MB-435; assay: NCI COMPARE panel (SRB growth inhibition), MDA-MB-435; type: cell-based; conditions: Homo sapiens; Melanoma, MDA-MB-435, 48 h
Experimental: as §1, §2, §3

[4] = target: DNA-PK (Homo sapiens, UniProt P78527); assay: Z'-LYTE / Adapta biochemical kinase assay, DNA-PK; conditions: for inhibition at 0.1 µM: concentration of 100 nM/liter, read-out: Percent Inhibition of target enzymes, DNA-PK
Source text: The Z′-LYTE® biochemical assay employs a fluorescence-based, coupled-enzyme format and is based on the differential sensitivity of phosphorylated and non-phosphorylated peptides to proteolytic cleavage. The peptide substrate is labeled with two fluorophores—one at each end—that make up a FRET pair. In the primary reaction, the kinase transfers the gamma-phosphate of ATP to a single tyrosine, serine or threonine residue in a synthetic FRET-peptide. In the secondary reaction, a site-specific protease recognizes and cleaves non-phosphorylated FRET-peptides. Phosphorylation of FRET-peptides suppresses cleavage by the Development Reagent. Cleavage disrupts FRET between the donor (i.e., coumarin) and acceptor (i.e., fluorescein) fluorophores on the FRET-peptide, whereas uncleaved, phosphorylated FRET-peptides maintain FRET. A ratiometric method, which calculates the ratio (the Emission Ratio) of donor emission to acceptor emission after excitation of the donor fluorophore at 400 nm, is used to quantitate reaction progress.
A significant benefit of this ratiometric method for quantitating reaction progress is the elimination of well-to-well variations in FRET-peptide concentration and signal intensities. As a result, the assay yields very high Z′-factor values (>0.7) at a low percent phosphorylation.
Both cleaved and uncleaved FRET-peptides contribute to the fluorescence signals and therefore to the Emission Ratio. The extent of phosphorylation of the FRET-peptide can be calculated from the Emission Ratio. The Emission Ratio will remain low if the FRET-peptide is phosphorylated (i.e., no kinase inhibition) and will be high if the FRET-peptide is non-phosphorylated (i.e., kinase inhibition).
Enzyme: The ADAPTA universal kinase assay is a homogenous, fluorescent based immunoassay for the detection of ADP. In contrast to ATP depletion assays, the ADAPTA assay is extremely sensitive to ADP formation such that a majority of the signal change occurs in the first 10-20% conversion of ATP to ADP. This makes the ADAPTA universal kinase assay ideally suited for use with low activity kinases.
The principle of the ADAPTA universal kinase assay is outlined below. The assay itself can be divided into two phases: a kinase reaction phase, and an ADP detection phase. In the kinase reaction phase, all components required for the kinase reaction are added to the well, and the reaction is allowed to incubate for 60 minutes. After the reaction, a detection solution consisting of a europium labeled anti-ADP antibody, an Alexa Fluor® 647 labeled ADP tracer, and EDTA (to stop the kinase reaction) is added to the assay well. ADP formed by the kinase reaction (in the absence of an inhibitor) will displace the Alexa Fluor® 647 labeled ADP tracer from the antibody, resulting in a decrease in the TR-FRET signal. In the presence of an inhibitor, the amount of ADP formed by the kinase reaction is reduced, and the resulting intact antibody-tracer interaction results in a high TR-FRET signal.
Test Compounds: The Test Compounds are screened in 1% DMSO (final) in the well. For 10 point titrations, 3-fold serial dilutions are conducted from the starting concentration of the customer’s choosing.
Peptide/Kinase Mixtures: All Peptide/Kinase Mixtures are diluted to a 2X working concentration in the appropriate Kinase Buffer.
ATP Solution: All ATP Solutions are diluted to a 4X working concentration in Kinase Buffer (50 mM HEPES pH 7.5, 0.01% BRIJ-35, 10 mM MgCl2,1 mM EGTA). ATP Km apparent is previously determined using a Z′-LYTE® assay.
Development Reagent Solution: The Development Reagent is diluted in Development Buffer.
Assay Protocol: Bar-coded Corning, low volume NBS, black 384-wellplate (Corning Cat. #4514) 1. 2.5 µL - 4X Test Compound or 100 nL 100X plus 2.4 µL kinase buffer. 2. 5 µL - 2X Peptide/Kinase Mixture. 3. 2.5 µL - 4X ATP Solution. 4. 30-second plate shake. 5. 60-minute Kinase Reaction incubation at room temperature. 6. 5 µL - Development Reagent Solution. 7. […]

Row | SMILES | GI50 [1] [nM] | GI50 [2] [nM] | GI50 [3] [nM] | inhibition at 0.1 µM [4] [%] | pIC50 ([4]; DNA-PK)
1 | CS(=O)(=O)Nc1cc(-c2ccc3ncc(C#N)c(Nc4cccc(Cl)c4F)c3c2)cnc1Cl [Compound 10, N-[2-chloro-5-[4-(3-chloro-2-fluoro-anilino)-3-cyano-6-quinolyl]-3-pyridyl]methanesulfonamide] | ≤ 75 | > 250 | 125 to 250 | > 90 | –
2 | CS(=O)(=O)Nc1cc(-c2ccc3ncnc(Nc4cccc(Cl)c4F)c3c2)cnc1Cl [Compound 6, N-[2-chloro-5-[4-(3-chloro-2-fluoro-anilino)quinazolin-6-yl]-3-pyridyl] methanesulfonamide] | 75 to 125 | 125 to 250 | 125 to 250 | > 90 | ≥ 8.70
